These results are taken from patent publication US9096591B2, “Tetracyclic compounds” (Medivation Technologies, Inc., priority 2007, dated 2015).

“And” between values parts separate entries of the source, which are not always exact repeats. Identical values can stand only once.

The test system of data set [1] is adrenergic receptors α1D, α2A, α2B; serotonin receptor 5-HT6; dopamine receptor D2L. The experiment in a line: Classification of compounds (Type 1-4) from receptor binding and neurite outgrowth. The source says:
Compounds of the invention that inhibit binding of a ligand to adrenergic receptors α1D, α2A, α2B and serotonin receptor 5-HT6 by at least about 80% as determined in a suitable assay such as the assays described herein can be classified as Type 1 compounds. […] In one variation, binding of a ligand to serotonin receptor 5-HT7 is at least about 80%. […] Weak inhibition of binding of a ligand to the histamine H1 receptor is permitted as agonists of this receptor have been implicated in stimulating memory as well as weight gain. In one variation, binding to histamine receptor H1 is inhibited by less than about 80%. […] Compounds that inhibit binding of a ligand to the dopamine D2L receptor by at least about 80% as determined in a suitable assay such as the assay described herein can be classified as Type 2 compounds.
In one variation, Type 1 compounds further inhibit binding of a ligand to dopamine receptor D2L by less than about 80% as determined in a suitable assay known in the art such as the assay described herein. […] In one variation, binding of a ligand to serotonin receptor 5-HT7, 5-HT2A and/or 5-HT2C is inhibited by at least about 80% as determined in a suitable assay such as the assays described herein. […] In one variation, binding of a ligand to histamine receptor H1 and/or H2 is inhibited by less than about 80% as determined by a suitable assay known in the art such as the assays described herein.
In one variation, biding to serotonin receptor 5-HT2A is inhibited by at least about 80% as determined in a suitable assay know in the art such as the assay described herein.

The target of data set [2] is T1, human recombinant histamine H1 receptor (Homo sapiens, UniProt P35367).
T1 construct: expressed in transfected cells; host or cells: CHO cells
T1 sequence (P35367 whole entry): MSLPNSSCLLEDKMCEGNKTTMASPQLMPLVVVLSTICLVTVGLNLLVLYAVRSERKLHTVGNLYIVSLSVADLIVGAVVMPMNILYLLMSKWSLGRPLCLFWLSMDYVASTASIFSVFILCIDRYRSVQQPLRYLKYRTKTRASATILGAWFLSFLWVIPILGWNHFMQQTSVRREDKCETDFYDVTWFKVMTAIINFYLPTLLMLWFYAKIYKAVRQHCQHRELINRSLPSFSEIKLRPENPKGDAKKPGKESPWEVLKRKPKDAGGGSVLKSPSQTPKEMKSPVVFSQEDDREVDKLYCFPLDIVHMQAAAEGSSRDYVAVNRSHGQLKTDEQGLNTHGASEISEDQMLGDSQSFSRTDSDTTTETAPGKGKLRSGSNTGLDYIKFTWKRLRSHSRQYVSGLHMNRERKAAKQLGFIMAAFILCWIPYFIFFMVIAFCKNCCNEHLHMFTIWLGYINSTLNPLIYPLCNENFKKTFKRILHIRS
Description: Histamine H1 radioligand binding ([3H]Pyrilamine). To be noted: […] [3H]Pyrilamine, read-out: Histamine Binding H1, percent inhibition of specific binding. On the procedure:
To evaluate in radioligand binding assays the activity of compounds of the invention, human recombinant histamine H1 receptor expressed in Chinese hamster ovary (CHO) cells (De Backer M D et al. Biochem. Biophys. Res Comm. 197(3):1601, 1993) in a modified Tris-HCl buffer (50 mM Tris-HCl, pH 7.4, 2 mM MgCl2, 100 mM NaCl, 250 mM Sucrose) were used. […] Non-specific binding was estimated in the presence of 1 μM pyrilamine. Receptor proteins were filtered and washed, the filters were then counted to determine [^3H]pyrilamine specifically bound. […] Biochemical assay results are presented as the percent inhibition of specific binding in Table 5.
To evaluate in radioligand binding assays the activity of compounds of the invention, human recombinant histamine H1 receptor expressed in Chinese hamster ovary (CHO) cells (De Backer, M. D. et al., Biochem. Biophys. Res. Comm. 197(3):1601, 1993) in a modified Tris-HCl buffer (50 mM Tris-HCl, pH 7.4, 2 mM MgCl2, 100 mM NaCl, 250 mM Sucrose) was used. […] Non-specific binding was estimated in the presence of 1 μM pyrilamine. Receptor proteins were filtered and washed, the filters were then counted to determine [^3H]Pyrilamine specifically bound. Compounds were screened at 1 μM, using 1% DMSO as vehicle. Biochemical assay results are presented as the percent inhibition of specific binding in Table 6.

In data set [3] the target is T2, human recombinant histamine H2 receptor (Homo sapiens, UniProt P25021).
T2 construct: expressed in transfected cells; host or cells: CHO-K1 cells
T2 sequence (P25021 whole entry): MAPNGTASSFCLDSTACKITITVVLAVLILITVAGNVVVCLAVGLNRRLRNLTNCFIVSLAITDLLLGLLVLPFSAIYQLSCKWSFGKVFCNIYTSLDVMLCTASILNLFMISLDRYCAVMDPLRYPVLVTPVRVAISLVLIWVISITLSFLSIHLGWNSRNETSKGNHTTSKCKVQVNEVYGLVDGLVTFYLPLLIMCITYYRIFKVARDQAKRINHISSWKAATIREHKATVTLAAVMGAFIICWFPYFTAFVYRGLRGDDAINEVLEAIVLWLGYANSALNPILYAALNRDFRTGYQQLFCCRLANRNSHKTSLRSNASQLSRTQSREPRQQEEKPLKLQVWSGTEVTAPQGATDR
Description: Histamine H2 radioligand binding ([125I]Aminopotentidine). To be noted: 0.3 μM compound; 0.1 nM [125I]Aminopotentidine; read-out: Histamine Binding H2, percent inhibition of specific binding. The procedure:
Non-specific binding was estimated in the presence of 3 μM Tiotidine. […] Biochemical assay results are presented as the percent inhibition of specific binding in Table 5.
Non-specific binding was estimated in the presence of 3 μM Tiotidine. […] Compounds were screened at 1 μM, using 1% DMSO as vehicle. Biochemical assay results are presented as the percent inhibition of specific binding in Table 6.

The subject of data set [4] is synaptosomes of cortex of rat brain. Description: Glutamate-induced 45Ca2+ uptake into synaptosomes. The data set is classed as biochemical, Wistar rats. To be noted: for % Ca of control (control-100%), glutamate-induced 45Ca2+ uptake into synaptosomes: rat cortex synaptosomes. On the procedure:
Synaptosomes were obtained from cerebral cortex of newborn (9-10 days) Wistar rats using standard Hajos method. The brain was homogenized with 10 volumes of cooled 0.32 M sucrose at 900 rpm. The homogenate was centrifuged at 1500 g for 10 min. and the resulted supernatant was centrifuged at 10000 g for 20 min. The radioactive label was accumulated by suspension of the synaptosomal P2-fraction in the incubation buffer A having the following composition: 132 mM NaCl, 5 mM KCl, 5 mM HEPES, 10 mM glucose, pH 7.4 (protein concentration of approximately 1.5-2 mg/ml). The mixture was further incubated for 5 min with 200 μM glutamate at 37° C. and then ^45Ca^2+ uptake was stopped by filtration through GF/B filters (Whatman, England) followed by three washes with cold buffer B (145 mM KCl, 10 mM Tris, 5.4 mM Trilon B, pH 7.4). The radioactivity probes were analyzed by fluid scintillation beta-analyzer (TriCarb, Perkin Elmer). All tests were performed in three parallel trials in 2-3 independent experiments. The amount of ^45Ca^2+ uptake was estimated by calculating the difference of radioactive label during the stimulation with glutamate and without the stimulation with agonist.
Specific ^45Ca^2+ uptake was estimated using the following equation: K(43/21)=[(Ca4−Ca3)/(Ca2−Ca1)]100%, where
Ca1—^45Ca^2+ uptake for the Control (without glutamate and the compound tested),
[…] glutamate-induced ^45Ca^2+ uptake (glutamate only),
Ca3—^45Ca^2+ uptake in the presence of the compound tested (without glutamate),
Ca4—^45Ca^2+ uptake in the presence of glutamate and the testing compound.
Statistical analysis of the results was performed using Student's t-test.

The test system of the next data set is mice. The experiment in a line: recognition test of new location of a known object (spatial memory). The data set is classed as in vivo. To be noted: for effect of the dose on exploration time / memory (in words) / time exploring the object in a new location, % of the total time / time exploring the object in the known position, % of the total time / overall effect on memory (in words): mice; for overall effect on memory (in words): doses 0.05-1 mg/kg.

Regarding `CCN1CCc2c(c3cc(C)ccc3n2CC(O)c2ccc(C)cc2)C1` (racemic) [Compound 29, racemic-2-(2-ethyl-1,2,3,4-tetrahydro-8-methylpyrido[4,3-b]indol-5-yl)-1-p-tolylethanol], the “compound type (classification by receptor binding profile and neurite outgrowth)” value in data set [1] was “Type one”. Further, the inhibition at 0.03 µM in data set [2] (0.03 μM compound) was 37%. Also, the inhibition at 0.1 µM in data set [2] (0.1 μM compound) worked out at 57%. For the same compound, in data set [3], the inhibition at 0.3 µM turned out to be 27%.
`COc1ccc2c(c1)c1c(n2CCc2noc(-c3ccccc3)n2)CCN(C)C1` [Compound C4-5]: in data set [4], the “concentration at which glutamate-induced 45Ca2+ uptake into synaptosomes was inhibited” value is 1 to 25 µM. For the same compound, the “inhibition of glutamate-induced 45Ca2+ uptake into synaptosomes” value in data set [4] (10 μM (maximal inhibition)) was 40%. Also, the “glutamate-induced 45Ca2+ uptake into synaptosomes of rat cortex, % Ca of control (control-100%)” value in data set [4] (C 0.1 μM) is 136.4% and 136.4 ± 11.8%; in data set [4] (C 0.5 μM), 124.6 ± 13.7%; in data set [4] (C 1.0 μM) it was 99.8 ± 0.1%; in data set [4] (C 5.0 μM) it was 84.2 ± 0.7%; in data set [4] (C 10 μM) it was 59.9 ± 0.2%; in data set [4] (C 25 μM) it was 98.6 ± 9.4%. The “glutamate-induced 45Ca2+ uptake into synaptosomes of rat cortex, % Ca of control (control-100%)” value in data set [4] (C 50 μM) is 111.7 ± 11.2%; in data set [4] (C 100 μM), 148.4% and 148.4 ± 7.3%. Also, the “Influence on memory in the test recognition new localization of known object” value in the data set with mice (Dose of Compound 0.05 mg/kg) is on record as “−”; with mice (Dose of Compound 0.1 mg/kg), “−”; in the data set on mice (Dose of Compound 0.5 mg/kg) it was “+”; in the data set with mice (Dose of Compound 1.0 mg/kg) it was “+”. In the data set on mice (comparison of effective doses), the “activity on memory: times weaker than dimebon” value was “approximately 10 times”. The “effect of the dose on exploration time / memory (in words)” value in the data set on mice (dose 0.05 mg/kg) and in the data set on mice (dose 0.1 mg/kg) was “not effective” each time. Moreover, the “time exploring the object in a new location, % of the total time” value with mice (dose 0.5 mg/kg) amounted to 56.2±7.6%; in the data set on mice (dose 1 mg/kg), 60.6±8.4%. Besides, the “time exploring the object in the known position, % of the total time” value with mice (dose 0.5 mg/kg) worked out at 43.8±7.6%; in the data set on mice (dose 1 mg/kg), 39.4±8.4%. In the data set on mice, the “overall effect on memory (in words)” value is “stimulated memory”.
In the case of `CN1CCc2c(c3cc(F)ccc3n2CCc2noc(-c3ccccc3)n2)C1` [Compound C4-7], the “concentration at which glutamate-induced 45Ca2+ uptake into synaptosomes was not affected” value in data set [4] fell in the range of 0.1 to 10 µM. For the same compound, the “glutamate-induced 45Ca2+ uptake into synaptosomes of rat cortex, % of control” value in data set [4] (50-100 μM) is given as approximately 128%. Moreover, the “% Ca of control (control-100%), glutamate-induced 45Ca2+ uptake into synaptosomes” value in data set [4] (compound 0.1 μM) was 97.2 ± 5.5%; in data set [4] (compound 0.5 μM) it was 87.6 ± 3.9%; in data set [4] (compound 1 μM) it was 105.3 ± 2.8%; in data set [4] (compound 5 μM), 109.2 ± 10%; in data set [4] (compound 10 μM), 101.6 ± 7.8%; in data set [4] (compound 50 μM), 128.3 ± 8.1%. The “% Ca of control (control-100%), glutamate-induced 45Ca2+ uptake into synaptosomes” value in data set [4] (compound 100 μM) amounted to 123.6 ± 4.9%. Also, the “Influence on memory in the test recognition new localization of known object” value is reported as “−” in the data set on mice (Dose of Compound 0.05 mg/kg), “+” in the data set on mice (Dose of Compound 0.1 mg/kg), “−” in the data set on mice (Dose of Compound 0.5 mg/kg) and “−” in the data set on mice (Dose of Compound 1.0 mg/kg). Further, the “effect of the dose on exploration time / memory (in words)” value in the data set with mice (dose 0.05 mg/kg), in the data set with mice (dose 0.5 mg/kg) and with mice (dose 1 mg/kg) was “not effective” in each case. For the same compound, the “time exploring the object in a new location, % of the total time” value with mice (dose 0.1 mg/kg) stood at 63.4±10.4%. In the data set with mice (dose 0.1 mg/kg), the “time exploring the object in the known position, % of the total time” value worked out at 36.6±10.4%. Also, the “overall effect on memory (in words)” value with mice is listed as “stimulated memory”.
In turn, `CN1CCc2c(c3ccccc3n2CCc2noc(-c3ccccc3)n2)C1` [Compound G6-a, 2-Methyl-5-[2-(5-phenyl-1,2,4-oxadiazol-3-yl)ethyl]-2,3,4,5-tetrahydro-1H-pyrido[4,3-b]indole] showed a melting point of 111 to 112 °C.
`COc1ccc2c(c1)c1c(n2CCc2noc(-c3ccccc3)n2)CCN(C)C1` [Compound G6-b, 8-Methoxy-2-methyl-5-[2-(5-phenyl-1,2,4-oxadiazol-3-yl)ethyl]-2,3,4,5-tetrahydro-1H-pyrido[4,3-b]indole] came in with a melting point of 77.5 to 79 °C.
In turn, `Cc1ccc2c(c1)c1c(n2CCc2noc(-c3ccccc3)n2)CCN(C)C1` [Compound G6-c, 2,8-Dimethyl-5-[2-(5-phenyl-1,2,4-oxadiazol-3-yl)ethyl]-2,3,4,5-tetrahydro-1H-pyrido[4,3-b]-indole] yielded a melting point of 120 to 120.5 °C.
The same measure, in the same setting: as for `CN1CCc2c(c3cc(Cl)ccc3n2CCc2noc(-c3ccccc3)n2)C1` [Compound G6-d, 8-Chloro-2-methyl-5-[2-(5-phenyl-1,2,4-oxadiazol-3-yl)ethyl]-2,3,4,5-tetrahydro-1H-pyrido-[4,3-b]indole], the figure is 122 to 123 °C; as for `CN1CCc2c(c3cc(F)ccc3n2CCc2noc(-c3ccccc3)n2)C1` [Compound G6-f, 8-Fluoro-2-methyl-5-[2-(5-phenyl-1,2,4-oxadiazol-3-yl)ethyl]-2,3,4,5-tetrahydro-1H-pyrido-[4,3-b]indole], 121.5 to 122.5 °C; as for `COc1ccc2c(c1)c1c(n2CCc2nc(-c3ccccc3)cs2)CCN(C)C1` [Compound G8-b, 8-Methoxy-2-methyl-5-[2-(4-phenylthiazol-2-yl)ethyl]-2,3,4,5-tetrahydro-1H-pyrido[4,3-b]indole], 135 to 136.5 °C.

In general, inhibition refers to the share of the control response that was lost under treatment. One may read the melting point as the temperature of the solid-liquid transition.
